Results published in US6143732A, “Sesquiterpene derivatives” (priority 1997, dated 2000).

System: influenza A and B viruses
Assay: Inhibitory activity against virus (general statement)
Assay type: cell-based
Settings: statement in words

Question: How did the “inhibitory activity against virus” value turn out when `C[C@H]1CC[C@H]2C(C)(C)[C@@H](O)CC[C@]23Oc2c(c(O)cc4c2CNC4=O)C[C@]13C` [SQ-02-S5, (6a R, 7S, 9a S, 11 S, 13a S)-2,3,6,6a,7,8,9,9a,10,11,12,13-dodecahydro-5, 11-dihydroxy-6a, 7,10,10-tetramethyl-3-oxo-1H-benzo[8,8a][1]benzopyrano[2,3-e]isoindole] was run?
Answer: strong inhibitory activity against virus
